Measured values from patent publication US9388140B2, “Substituted benzimidazoles” (priority 2011, dated 2016).

Biological target: human kinase Mps-1 (Homo sapiens (Human), UniProt P33981)
Assay: Mps-1 kinase assay (TR-FRET)
Assay type: biochemical
Conditions: N-terminally GST-tagged human full length recombinant Mps-1; 10 μM ATP; 1 μM biotinylated peptide substrate; read-out: Mps1 IC50
Experimental: The human kinase Mps-1 phosphorylates a biotinylated substrate peptide. Detection of the phosphorylated product is achieved by time-resolved fluorescence resonance energy transfer (TR-FRET) from Europium-labelled anti-phospho-Serine/Threonine antibody as donor to streptavidin labelled with cross-linked allophycocyanin (SA-XLent) as acceptor. Compounds are tested for their inhibition of the kinase activity.
N-terminally GST-tagged human full length recombinant Mps-1 kinase (purchased from Invitrogen, Karslruhe, Germany, cat. no PV4071) was used. As substrate for the kinase reaction a biotinylated peptide of the amino-acid sequence […] (C-terminus in amide form, purchased from Biosynthan GmbH, Berlin) was used.
The concentration of Mps-1 in the assay was adjusted to the activity of the enzyme lot and was chosen appropriate to have the assay in the linear range, typical enzyme concentrations were in the range of about 1 nM (final conc. in the 5 μl assay volume).
The resulting mixture was incubated 1 h at 22° C. to allow the binding of the phosphorylated peptide to the anti-phospho(Ser/Thr)-Europium-antibody. Subsequently the amount of phosphorylated substrate was evaluated by measurement of the resonance energy transfer from the Europium-labelled anti-phospho(Ser/Thr) antibody to the Streptavidin-XLent.

Sequence of human kinase Mps-1 (P33981 whole entry): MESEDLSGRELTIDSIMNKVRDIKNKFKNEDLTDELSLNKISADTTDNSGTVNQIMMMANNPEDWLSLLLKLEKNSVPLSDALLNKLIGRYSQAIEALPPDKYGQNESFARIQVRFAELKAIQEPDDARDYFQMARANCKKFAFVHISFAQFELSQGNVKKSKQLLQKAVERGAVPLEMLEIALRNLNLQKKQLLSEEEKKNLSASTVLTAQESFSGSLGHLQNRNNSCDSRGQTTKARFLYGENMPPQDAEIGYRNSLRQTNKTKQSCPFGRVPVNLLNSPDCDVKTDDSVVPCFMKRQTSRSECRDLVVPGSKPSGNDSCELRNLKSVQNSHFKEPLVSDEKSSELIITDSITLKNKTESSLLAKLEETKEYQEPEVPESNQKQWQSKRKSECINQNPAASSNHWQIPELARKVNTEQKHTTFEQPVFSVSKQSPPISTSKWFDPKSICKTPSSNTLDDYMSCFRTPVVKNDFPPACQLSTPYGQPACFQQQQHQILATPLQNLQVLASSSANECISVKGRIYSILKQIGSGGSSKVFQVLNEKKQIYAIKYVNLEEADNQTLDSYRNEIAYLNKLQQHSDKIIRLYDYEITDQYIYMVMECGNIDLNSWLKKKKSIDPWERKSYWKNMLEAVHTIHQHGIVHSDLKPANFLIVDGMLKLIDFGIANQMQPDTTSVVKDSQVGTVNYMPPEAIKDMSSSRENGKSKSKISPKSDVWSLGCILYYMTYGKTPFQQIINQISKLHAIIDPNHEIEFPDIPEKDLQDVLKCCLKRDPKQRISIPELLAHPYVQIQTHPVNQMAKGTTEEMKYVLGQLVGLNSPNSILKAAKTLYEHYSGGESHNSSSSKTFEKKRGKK

IC50 [nM] | Compound
11.9 | Cc1cc(-n2cnc3c(NCCC(F)(F)F)cc(Oc4cccc(OC(F)(F)F)c4)cc32)ccc1C(=O)NC1CC1 [Example 59, N-cyclopropyl-2-methyl-4-{6-[3-(trifluoromethoxy)phenoxy]-4-[(3,3,3-trifluoropropyl)amino]-1H-benzimidazol-1-yl}benzamide]
1.3 | Cc1cc(-n2cnc3c(NCCC(F)(F)F)cc(Oc4ccc(OC(F)F)cc4)cc32)ccc1C(=O)NC1CC1 [Example 61, N-cyclopropyl-4-{6-[4-(difluoromethoxy)phenoxy]-4-[(3,3,3-trifluoropropyl)amino]-1H-benzimidazol-1-yl}-2-methylbenzamide]
3.2 | Cc1cc(-n2cnc3c(NCCC(F)(F)F)cc(Oc4cccc(OC(F)F)c4)cc32)ccc1C(=O)NC1CC1 [Example 62, N-cyclopropyl-4-{6-[3-(difluoromethoxy)phenoxy]-4-[(3,3,3-trifluoropropyl)amino]-1H-benzimidazol-1-yl}-2-methylbenzamide]
2.6 | Cc1cc(-n2cnc3c(NCCC(F)(F)F)cc(Oc4cccc(S(C)(=O)=O)c4)cc32)ccc1C(=O)NC1CC1 [Example 64, N-cyclopropyl-2-methyl-4-{6-[3-(methylsulfonyl)phenoxy]-4-[(3,3,3-trifluoropropyl)amino]-1H-benzimidazol-1-yl}benzamide]
2 | COc1cccc(Oc2cc(NCCC(F)(F)F)c3ncn(-c4ccc(C(=O)NC5CC5)c(C)c4)c3c2)c1 [Example 70, N-cyclopropyl-4-{6-(3-methoxyphenoxy)-4-[(3,3,3-trifluoropropyl)amino]-1H-benzimidazol-1-yl}-2-methylbenzamide]
6.4 | Cc1cc(-n2cnc3c(NCCC(F)(F)F)cc(Oc4ccc(S(C)(=O)=O)cc4)cc32)ccc1C(=O)NC1CC1 [Example 74, N-cyclopropyl-2-methyl-4-{6-[4-(methylsulfonyl)phenoxy]-4-[(3,3,3-trifluoropropyl)amino]-1H-benzimidazol-1-yl}benzamide]
7.2 | Cc1cc(-n2cnc3c(NCCC(F)(F)F)cc(Oc4ccc(F)c(C(F)(F)F)c4)cc32)ccc1C(=O)NC1CC1 [Example 76, N-cyclopropyl-4-{6-[4-fluoro-3-(trifluoromethyl)phenoxy]-4-[(3,3,3-trifluoropropyl)amino]-1H-benzimidazol-1-yl}-2-methylbenzamide]
1 | Cc1cc(-n2cnc3c(NCCC(F)(F)F)cc(Oc4cccc(C#N)c4)cc32)ccc1C(=O)NC1CC1 [Example 77, 4-{6-(3-cyanophenoxy)-4-[(3,3,3-trifluoropropyl)amino]-1H-benzimidazol-1-yl}-N-cyclopropyl-2-methylbenzamide]
3.9 | Cc1cc(-n2cnc3c(NCCC(F)(F)F)cc(Oc4cccc(C(=O)NC5CC5)c4)cc32)ccc1C(=O)NC1CC1 [Example 79, N-cyclopropyl-4-{6-[3-(cyclopropylcarbamoyl)phenoxy]-4-[(3,3,3-trifluoropropyl)amino]-1H-benzimidazol-1-yl}-2-methylbenzamide]

Further lines, the compound ahead of its results:

Compound | IC50 [nM]
CCNC(=O)c1ccc(-n2cnc3c(NCCC(F)(F)F)cc(Oc4ccccc4O)cc32)cc1C [Example 55, N-ethyl-4-{6-(2-hydroxyphenoxy)-4-[(3,3,3-trifluoropropyl)amino]-1H-benzimidazol-1-yl}-2-methylbenzamide] | 0.7
CNC(=O)c1ccc(-n2cnc3c(NCCC(F)(F)F)cc(Oc4ccccc4O)cc32)cc1C [Example 56, 4-{6-(2-hydroxyphenoxy)-4-[(3,3,3-trifluoropropyl)amino]-1H-benzimidazol-1-yl}-N,2-dimethylbenzamide] | 0.3
COc1c(F)cccc1Oc1cc(NCCC(F)(F)F)c2ncn(-c3ccc(C(=O)NC4CC4)c(C)c3)c2c1 [Example 57, N-cyclopropyl-4-{6-(3-fluoro-2-methoxyphenoxy)-4-[(3,3,3-trifluoropropyl)amino]-1H-benzimidazol-1-yl}-2-methylbenzamide] | 6.8
Cc1cc(-n2cnc3c(NCCC(F)(F)F)cc(Oc4ccc(N5CCOCC5)cc4)cc32)ccc1C(=O)NC1CC1 [Example 60, N-cyclopropyl-2-methyl-4-{6-[4-(morpholin-4-yl)phenoxy]-4-[(3,3,3-trifluoropropyl)amino]-1H-benzimidazol-1-yl}benzamide] | 11.5
COc1ccccc1Nc1cc(NCCC(F)(F)F)c2ncn(-c3ccc(C(=O)NC4CC4)c(C)c3)c2c1 [Example 63, N-cyclopropyl-4-{6-[(2-methoxyphenyl)amino]-4-[(3,3,3-trifluoropropyl)amino]-1H-benzimidazol-1-yl}-2-methylbenzamide] | 18.9
COc1cccc(Nc2cc(NCCC(F)(F)F)c3ncn(-c4ccc(C(=O)NC5CC5)c(C)c4)c3c2)c1C [Example 65, N-cyclopropyl-4-{6-[(3-methoxy-2-methylphenyl)amino]-4-[(3,3,3-trifluoropropyl)amino]-1H-benzimidazol-1-yl}-2-methylbenzamide] | 2.8
CCNC(=O)c1ccc(-n2cnc3c(NCCC(F)(F)F)cc(Oc4cccc(F)c4F)cc32)cc1C [Example 66, 4-{6-(2,3-difluorophenoxy)-4-[(3,3,3-trifluoropropyl)amino]-1H-benzimidazol-1-yl}-N-ethyl-2-methylbenzamide] | 2.1
CNC(=O)c1ccc(-n2cnc3c(NCCC(F)(F)F)cc(Oc4cccc(F)c4F)cc32)cc1C [Example 67, 4-{6-(2,3-difluorophenoxy)-4-[(3,3,3-trifluoropropyl)amino]-1H-benzimidazol-1-yl}-N,2-dimethylbenzamide] | 1
CNC(=O)c1ccc(-n2cnc3c(NCCC(F)(F)F)cc(Oc4cccc(OC)c4)cc32)cc1C [Example 68, 4-{6-(3-methoxyphenoxy)-4-[(3,3,3-trifluoropropyl)amino]-1H-benzimidazol-1-yl}-N, 2-dimethylbenzamide] | 8.8
CCNC(=O)c1ccc(-n2cnc3c(NCCC(F)(F)F)cc(Oc4cccc(OC)c4)cc32)cc1C [Example 69, N-ethyl-4-{6-(3-methoxyphenoxy)-4-[(3,3,3-trifluoropropyl)amino]-1H-benzimidazol-1-yl}-2-methylbenzamide] | 25.9
CCNC(=O)c1ccc(-n2cnc3c(NCCC(F)(F)F)cc(Oc4cccc(F)c4OC)cc32)cc1C [Example 71, N-ethyl-4-{6-(3-fluoro-2-methoxyphenoxy)-4-[(3,3,3-trifluoropropyl)amino]-1H-benzimidazol-1-yl}-2-methylbenzamide] | 28.5
CNC(=O)c1ccc(-n2cnc3c(NCCC(F)(F)F)cc(Oc4cccc(F)c4OC)cc32)cc1C [Example 72, 4-{6-(3-fluoro-2-methoxyphenoxy)-4-[(3,3,3-trifluoropropyl)amino]-1H-benzimidazol-1-yl}-N,2-dimethylbenzamide] | 33
COc1cc(C#N)ccc1Oc1cc(NCCC(F)(F)F)c2ncn(-c3ccc(C(=O)NC4CC4)c(C)c3)c2c1 [Example 73, 4-{6-(4-cyano-2-methoxyphenoxy)-4-[(3,3,3-trifluoropropyl)amino]-1H-benzimidazol-1-yl}-N-cyclopropyl-2-methylbenzamide] | 52.2
Cc1cc(-n2cnc3c(NCCC(F)(F)F)cc(Oc4ccc(-c5ncco5)cc4)cc32)ccc1C(=O)NC1CC1 [Example 75, N-cyclopropyl-2-methyl-4-{6-[4-(1,3-oxazol-2-yl)phenoxy]-4-[(3,3,3-trifluoropropyl)amino]-1H-benzimidazol-1-yl}benzamide] | 21.9
Cc1cc(-n2cnc3c(NCCC(F)(F)F)cc(Oc4ccc(-n5cncn5)cc4)cc32)ccc1C(=O)NC1CC1 [Example 78, N-cyclopropyl-2-methyl-4-{6-[4-(1H-1,2,4-triazol-1-yl)phenoxy]-4-[(3,3,3-trifluoropropyl)amino]-1H-benzimidazol-1-yl}benzamide] | 11
Cc1cc(-n2cnc3c(NCCC(F)(F)F)cc(Nc4ccccc4O)cc32)ccc1C(=O)NC1CC1 [Example 82, N-cyclopropyl-4-{6-[(2-hydroxyphenyl)amino]-4-[(3,3,3-trifluoropropyl)amino]-1H-benzimidazol-1-yl}-2-methylbenzamide] | 3.9
Cc1cc(-n2cnc3c(NCCC(F)(F)F)cc(Oc4ccc(O)c(F)c4)cc32)ccc1C(=O)NC1CC1 [Example 83, N-cyclopropyl-4-{6-(3-fluoro-4-hydroxyphenoxy)-4-[(3,3,3-trifluoropropyl)amino]-1H-benzimidazol-1-yl}-2-methylbenzamide] | 0.7
CNC(=O)c1ccc(-n2cnc3c(NCC4CCOCC4)cc(Oc4cccc(F)c4F)cc32)cc1C [Example 84, 4-{6-(2,3-difluorophenoxy)-4-[(tetrahydro-2H-pyran-4-ylmethyl)amino]-1H-benzimidazol-1-yl}-N,2-dimethylbenzamide] | 3.4
CCNC(=O)c1ccc(-n2cnc3c(NCC4CCOCC4)cc(Oc4cccc(F)c4F)cc32)cc1C [Example 85, 4-{6-(2,3-Difluorophenoxy)-4-[(tetrahydro-2H-pyran-4-ylmethyl)amino]-1H-benzimidazol-1-yl}-N-ethyl-2-methylbenzamide] | 3.3
CNC(=O)c1ccc(-n2cnc3c(NCC4CCOCC4)cc(Oc4ccc(OC)cc4F)cc32)cc1C [Example 86, 4-{6-(2-fluoro-4-methoxyphenoxy)-4-[(tetrahydro-2H-pyran-4-ylmethyl)amino]-1H-benzimidazol-1-yl}-N,2-dimethylbenzamide] | 7
